Experimental data: patent US5556872A, “Histamine derivatives useful as immunomodulators” (The Board of Trustees of the Leland Stanford Junior …, priority 1995, dated 1996)

How the values were obtained:
[1] = tested on: H3; experiment: Dominant interactions of congeners with histamine receptors: H3; assay type: binding; settings: Human lymphocytes, monocytes and neutrophils
[2] = tested on: IgG antibody response to horse myoglobin (h-Mb); experiment: Inhibition of IgG and IgG subclass antibody response to horse myoglobin in immunized mice (anti-horse myoglobin ELISA); assay type: in vivo, DBA/2 mice; settings: vs saline control mice
Experimental: ELISA plates were coated with 10 ug/ml commercially available horse myoglobin (h-Mb) in PBS 50 ul/well overnight at 4 deg C. The plates were washed with PBS once. The plates were then coated with 50 ul BBA (1 mg/ml) and washed with PBS once. The plates were then coated with test serum diluted in PBS-Tween, 50 ul/well and incubated at 4 deg C. overnight. The plates were then washed with PBS-Tween three times. Anti-IgG (1:2000) was added and diluted with PBS-Tween. For the IgG antibody subclasses, anti-IgG1, anti-IgG2a, anti-IgG2b was diluted and added to selected wells. Incubation was at 4 deg C. for two hours. Washing was with PBS-Tween 2 times with 5 minutes between each wash. A 1 mg/ml OPD in citrate buffer solution pH5 was prepared and 10 ul of H2O2/10 ml was added to the buffer solution. 50 ul of buffer was added to each well and the plates were placed in the dark for about 10 minutes. The reaction was stopped with 50 ul of 5N H2SO4 in each well. The plates were then read on an Elisa reader.
The following immunization protocol was repeated several times. The results have been collected in FIGS. 1a-d.
This experiment was done using two groups of 2-6 DBA/2 mice (average weight 22 grams). One group of mice were given one treatment of compound 3 intravenously one day before antigen treatment (day-1) and two days following antigen treatment (day+2). The dose of compound 3 was approximately 36 mg/kg in 100 ul of PBS. The other group of mice was given a saline control in 100 ul PBS. On day 0 the two groups of mice were injected with 100 ug h-Mb in 100 ul CFA intravenously (i.v.). The mice were then boosted fourteen days later with 100 ug of h-Mb in 100 ul IFA. The mice were bled 30 days later.

[3] = tested on: Hx; experiment: Dominant interactions of congeners with histamine receptors: Hx; assay type: binding, Human
[4] = tested on: phytohemagglutinin-induced Th proliferation; settings: pretreatment of human Ts cells with histamine; mediated via H2 receptors; cited from earlier work
[5] = tested on: murine NS cells; settings: in vitro; cited from earlier work
[6] = tested on: pokeweed mitogen-induced B cell differentiation; settings: pretreatment of human Ts cells with histamine; mediated via H2 receptors; cited from earlier work
[7] = tested on: human Ts cells; settings: Khan et al. 1985, Sansoni et al. 1985; cited from earlier work
[8] = target: H2 (Homo sapiens, UniProt P25021); experiment: Dominant interactions of congeners with histamine receptors: H2; assay type: binding
Sequence of H2 (P25021 whole entry): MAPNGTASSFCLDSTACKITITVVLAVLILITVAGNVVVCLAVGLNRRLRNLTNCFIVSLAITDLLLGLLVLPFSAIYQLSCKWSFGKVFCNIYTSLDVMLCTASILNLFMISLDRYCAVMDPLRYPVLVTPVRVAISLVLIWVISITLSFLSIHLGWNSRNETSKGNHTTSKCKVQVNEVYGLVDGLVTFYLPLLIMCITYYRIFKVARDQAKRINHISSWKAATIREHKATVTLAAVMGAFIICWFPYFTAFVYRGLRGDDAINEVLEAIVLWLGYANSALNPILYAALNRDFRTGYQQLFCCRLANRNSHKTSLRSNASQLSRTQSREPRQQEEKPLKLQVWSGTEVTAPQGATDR

[9] = target: H1 (Homo sapiens, UniProt P35367); experiment: Dominant interactions of congeners with histamine receptors: H1; assay type: binding
Sequence of H1 (P35367 whole entry): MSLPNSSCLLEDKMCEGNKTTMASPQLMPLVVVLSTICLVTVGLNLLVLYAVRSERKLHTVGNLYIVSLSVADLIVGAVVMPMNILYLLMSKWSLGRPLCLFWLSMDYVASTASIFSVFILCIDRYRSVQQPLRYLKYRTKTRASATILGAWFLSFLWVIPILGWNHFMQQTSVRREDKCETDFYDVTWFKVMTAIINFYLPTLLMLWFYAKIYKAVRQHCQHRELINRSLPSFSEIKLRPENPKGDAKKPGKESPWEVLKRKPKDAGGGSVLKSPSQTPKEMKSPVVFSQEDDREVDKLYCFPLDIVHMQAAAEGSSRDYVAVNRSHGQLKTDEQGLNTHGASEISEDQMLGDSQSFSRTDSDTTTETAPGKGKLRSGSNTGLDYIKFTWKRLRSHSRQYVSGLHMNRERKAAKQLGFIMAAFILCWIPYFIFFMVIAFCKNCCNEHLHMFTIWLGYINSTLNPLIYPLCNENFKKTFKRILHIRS

[10] = comparable experiment using Compound 1, FIG. 3
[11] = compound 3 approx. 36 mg/kg i.v. day -1 and day +2, FIG. 1

CC(CCCCC(=O)Nc1ccc(C(F)(F)F)cc1)NCCc1c[nH]cn1 (stereo not shown) [Compound 1, His--NH--CHCH3--(CH2)4 CONH--phi--CF3]
H3 dominant interaction [1]: AntiHx | IgG1 response [2, 10]: lower | IgG2a response [2, 10]: lower | IgG response [2, 10]: lower

NCCc1c[nH]cn1 [Histamine]
Hx dominant interaction ([3]; Human lymphocytes, monocytes and neutrophils): AntiHx | phytohemagglutinin-induced Th proliferation [4]: inhibited | effect on suppressive ability of murine NS cells [5]: enhances the suppressive ability of murine NS cells in vitro | pokeweed mitogen-induced B cell differentiation [6]: inhibited | effect on human Ts cells [7]: activates human Ts cells

O=C(CCCCCNCCc1c[nH]cn1)Nc1ccc(C(F)(F)F)cc1 [Compound 3, His--NH--(CH2)5 CONH--phi--CF3]
H2 receptor activity (in words) [8]: has been shown to have H2 receptor activity | H1 receptor activity (in words) [9]: not H1 receptor activity | Hx activity (in words) [3]: some Hx activity | IgG1 response [2, 11]: lower | IgG2a response [2, 11]: lower | IgG2b response [2, 11]: lower | total IgG response to h-Mb [2, 11]: much lower
